From paper PMC6270420, “Antibacterial Activity of Salicylanilide 4-(Trifluoromethyl)benzoates” (Molecules, 2013)
Values after ≈ are worked out from the molar mass of the structure shown. Where two headings read alike, the source gives them in different places.

Experiments:
[1] = tested on: Enterococcus sp. J 14365/08; assay: Antibacterial microdilution broth method; type: cell-based; conditions: read-out: MIC/IC90 Enterococcus sp. J 14365/08
Experimental: (§1) The in vitro antibacterial activity was assayed against eight Gram-positive and Gram-negative strains: Staphylococcus aureus CCM 4516/08, methicillin-resistant Staphylococcus aureus H 5996/08 (MRSA), Staphylococcus epidermidis H 6966/08, Enterococcus sp. J 14365/08; Escherichia coli CCM 4517, Klebsiella pneumoniae D 11750/08, ESBL-positive Klebsiella pneumoniae J 14368/08, and Pseudomonas aeruginosa CCM 1961.
(§2) The microdilution broth method modified according to standard M07-A07 in Mueller-Hinton broth (HiMedia Laboratories, Mumbai, India) adjusted to pH 7.4 (±0.2) was used. The tested compounds were dissolved in DMSO to the final concentrations ranging from […]. Benzylpenicillin (penicillin G) was used as a comparative drug. Bacterial inoculum in sterile water was prepared to match 0.5 McFarland scale ([…]). The minimum inhibitory concentrations were assayed as 90% (IC90) or higher reduction of growth when compared to the control. The determination of results was performed visually and spectrophotometrically (at 540 nm). The values of MICs were determined after 24 and 48 h of incubation in the darkness at 35 °C (±0.1) in a humid atmosphere.

[2] = tested on: methicillin-resistant Staphylococcus aureus H 5996/08 (MRSA); assay: Antibacterial microdilution broth method; type: cell-based; conditions: read-out: MIC/IC90 MRSA H 5996/08
Experimental: as §1, §2

[3] = tested on: Staphylococcus epidermidis H 6966/08; assay: Antibacterial microdilution broth method; type: cell-based; conditions: read-out: MIC/IC90 S. epidermidis H 6966/08
Experimental: as §1, §2

[4] = tested on: Escherichia coli CCM 4517; assay: Antibacterial microdilution broth method; type: cell-based; conditions: read-out: MIC/IC90 E. coli CCM 4517
Experimental: as §1, §2

[5] = tested on: Staphylococcus aureus CCM 4516/08; assay: Antibacterial microdilution broth method; type: cell-based; conditions: read-out: MIC/IC90 S. aureus CCM 4516/08
Experimental: as §1, §2

[6] = tested on: Gram-positive cocci including MRSA; assay: Antibacterial microdilution, summary for Gram-positive cocci; type: cell-based; conditions: Staphylococcus aureus, read-out: MICs against Gram-positive cocci
Experimental: as §1, §2

[7] = tested on: Mycobacterium tuberculosis 331/88 (H37Rv); assay: Antimycobacterial MIC micromethod, Šula's medium; type: cell-based; conditions: read-out: MIC Mtb. 331/88
[8] = tested on: Mycobacterium avium 330/88; assay: Antimycobacterial MIC micromethod; type: cell-based
[9] = tested on: M. kansasii 6509/96 (clinically isolated strain); assay: Antimycobacterial MIC micromethod; type: cell-based; conditions: Mycobacterium kansasii, read-out: MIC M. kansasii 6509/96
[10] = tested on: Mycobacterium kansasii 235/80; assay: Antimycobacterial MIC micromethod; type: cell-based; conditions: read-out: MIC M. kansasii 235/80
[11] = target: T1, mycobacterial isocitrate lyase (ICL1, Rv0467) (Mycobacterium tuberculosis, UniProt P9WKK7); assay: Isocitrate lyase inhibition assay (ICL1); type: biochemical, Mycobacterium tuberculosis H37Rv; conditions: 10 μmol/L; read-out: % ICL inhibition at 10 μmol/L (± standard deviation)
T1 construct: His tag (from pET-28b(+)); made in house; host or cells: E. coli BL21(DE3), pET-28b(+) plasmid
T1 sequence (P9WKK7 1-428): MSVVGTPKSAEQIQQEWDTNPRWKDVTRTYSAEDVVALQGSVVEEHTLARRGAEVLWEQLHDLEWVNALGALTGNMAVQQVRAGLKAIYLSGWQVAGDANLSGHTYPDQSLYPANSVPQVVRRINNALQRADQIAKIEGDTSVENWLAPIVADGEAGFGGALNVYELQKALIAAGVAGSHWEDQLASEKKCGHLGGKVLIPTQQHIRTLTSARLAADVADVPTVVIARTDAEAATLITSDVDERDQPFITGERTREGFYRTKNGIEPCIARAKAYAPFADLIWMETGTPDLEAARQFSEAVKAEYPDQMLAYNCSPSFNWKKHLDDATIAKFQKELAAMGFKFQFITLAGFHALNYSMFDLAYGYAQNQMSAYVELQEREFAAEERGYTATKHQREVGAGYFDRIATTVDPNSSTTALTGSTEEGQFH

HepG2 cells = assay: Cytotoxicity evaluation (CellTiter 96 MTS); type: cell-based, human; conditions: 24 h, cytotoxicity; read-out: IC50 HepG2
Experimental: Seven esters and their parent salicylanilides with the most robust antimicrobial activity were tested for cytotoxicity in the human hepatocellular liver carcinoma cell line HepG2 (passages 21–24; ECACC, Salisbury, UK) using a standard colorimetric method measuring a tetrazolium salt reduction (CellTiter(R) 96 AQueous One Solution Assay, Promega G3580, Madison, WI, USA).
The cells were routinely cultured in Minimum Essentials Eagle Medium (Sigma-Aldrich, Darmstadt, Germany) supplemented with 10% foetal bovine serum (PAA; Biotech, Prague, Czech Republic), 1% of L-glutamine solution (Sigma-Aldrich), and non-essential amino acids solution (Sigma-Aldrich) in a humidified atmosphere containing 5% CO2 at 37 °C. For subculturing, the cells were harvested after trypsin/EDTA (Sigma-Aldrich) treatment at 37 °C. The cells treated with the tested substances were used as experimental groups. Untreated HepG2 cells were used as control groups.
The cells were seeded in density 1 × 10^4 cells per well in a 96-well plate with microscopic control. Next day, the cells were treated with each of the tested substances. […] The most of the tested compounds were prepared in incubation concentrations of 0.01–20 µM in triplicates. 4-(Trifluoromethyl)benzoic acid was applied in the concentrations of 10–4,000 µM in triplicates. The following types of controls were included: determination of 100% viability and 0% viability (the cells treated by 10% DMSO), no cell control and vehiculum controls. These checking samples were prepared in triplicates.
The treated cells were incubated together with controls at 37 °C for 24 h in 5% CO2 atmosphere. After this time reagent from the kit CellTiter 96 AQueous One Solution Cell Proliferation Assay was added. The CellTiter 96 assay is based on the reduction of tetrazolium salt MTS [3-(4,5-dimethylthiazol-2-yl)-5-(3-carboxymethoxyphenyl)-2-(4-sulfophenyl)-2H-tetrazolium] to water-soluble formazan dye by metabolically active cells. The reduction of the reagent is attributed to availability of NADH or NADPH. The decline in levels of these metabolically important compounds in the cell causes that the production of formazan is reduced. The tested plate was incubated for 2 h at 37 °C and 5% CO2 and after this time, the absorbance was recorded at 490 nm using a 96-well plate reader (TECAN, Infinite M200, Grödig, Austria).
The results were expressed as inhibitory concentration which is necessary to inhibit cell viability to 50% from the maximal (control) viability (IC50). A standard toxicological parameter IC50 was calculated in each of the tested substances using GraphPad Prism software (version 5.02; GraphPad Software Inc., San Diego, CA, USA).

Row | Structure (SMILES) | MIC ([1]; SP.J14365/08, 24 h) | MIC ([1]; SP.J14365/08, 48 h) | MIC ([2]; 24 h) | MIC ([2]; 48 h) | MIC ([3]; H6966/08, 24 h) | MIC ([3]; H6966/08, 48 h) | MIC ([4]; CCM4517, 24 h) | MIC ([4]; CCM4517, 48 h) | MIC ([5]; CCM4516, 24 h) | MIC ([5]; CCM4516, 48 h) | MIC ([7]; 336 h, 14 d) | MIC ([7]; 504 h, 21 d) | MIC ([8]; 330/88, 336 h, 14 d) | MIC ([8]; 330/88, 504 h, 21 d) | MIC ([9]; 168 h, 7 d) | MIC ([9]; 336 h, 14 d) | MIC ([9]; 504 h, 21 d) | MIC ([10]; 235/80, 168 h, 7 d) | MIC ([10]; 235/80, 336 h, 14 d) | MIC ([10]; 235/80, 504 h, 21 d) | also measured
1 | O=C(Oc1cc(Cl)ccc1C(=O)Nc1cccc(Br)c1)c1ccc(C(F)(F)F)cc1 [1h] | 31.2 µM (≈ 15.6 µg/mL) | 250 µM (≈ 125 µg/mL) | 0.49 µM (≈ 0.244 µg/mL) | 0.98 µM (≈ 0.489 µg/mL) | 0.49 µM (≈ 0.244 µg/mL) | 0.98 µM (≈ 0.489 µg/mL) | > 500 µM | > 500 µM | 0.98 µM (≈ 0.489 µg/mL) | 0.98 µM (≈ 0.489 µg/mL) | 4 µM (≈ 1.99 µg/mL) | 8 µM (≈ 3.99 µg/mL) | 8 µM (≈ 3.99 µg/mL) | 16 µM (≈ 7.98 µg/mL) | 2 µM (≈ 0.997 µg/mL) | 8 µM (≈ 3.99 µg/mL) | 8 µM (≈ 3.99 µg/mL) | 4 µM (≈ 1.99 µg/mL) | 8 µM (≈ 3.99 µg/mL) | 8 µM (≈ 3.99 µg/mL) | MIC [6]: < 1 µM; inhibition at 10 µM [11]: ≥ 20%
2 | O=C(Oc1ccc(Cl)cc1C(=O)Nc1ccc(F)cc1)c1ccc(C(F)(F)F)cc1 [1m] | 500 µM (≈ 219 µg/mL) | > 500 µM | 15.6 µM (≈ 6.84 µg/mL) | 15.6 µM (≈ 6.84 µg/mL) | 31.2 µM (≈ 13.7 µg/mL) | > 500 µM | > 500 µM | > 500 µM | 7.81 µM (≈ 3.42 µg/mL) | 7.81 µM (≈ 3.42 µg/mL) | 8 µM (≈ 3.5 µg/mL) | 8 µM (≈ 3.5 µg/mL) | 16 µM (≈ 7 µg/mL) | 32 µM (≈ 14 µg/mL) | 8 µM (≈ 3.5 µg/mL) | 16 µM (≈ 7 µg/mL) | 16 µM (≈ 7 µg/mL) | 4 µM (≈ 1.75 µg/mL) | 16 µM (≈ 7 µg/mL) | 16 µM (≈ 7 µg/mL) | inhibition at 10 µM [11]: ≥ 20%
3 | O=C(Nc1ccc(Cl)c(Cl)c1)c1cc(Cl)ccc1O [SAL-1] |  |  |  |  |  |  |  |  |  |  |  |  |  |  |  |  |  |  |  |  | IC50 (HepG2 cells): 840 nM
